Holding throughout (type): functional
The test system of experiment [1] is Mycobacterium tuberculosis variant bovis BCG. Description: Bactericidal activity against Mycobacterium bovis BCG ATCC 35734 assessed as log reduction in bacterial colonies at 2 times MIC measured at 9 hrs by time-kill assay.
Experiment [2] has as its system Mycobacterium tuberculosis. Description: Antimycobacterial activity against rifampicin, streptomycin and ethambutol resistant Mycobacterium tuberculosis clinical isolate 01;005 assessed as reduction in 2 log10 bacterial colonies measured after 14 to 21 days by agar dilution method.
The test system of experiment [3] is Mycobacterium tuberculosis. Description: Antimycobacterial activity against isoniazid, streptomycin and ethambutol resistant Mycobacterium tuberculosis clinical isolate 01;104 assessed as reduction in 2 log10 bacterial colonies measured after 14 to 21 days by agar dilution method.

The structures appear in SMILES notation. In brackets after ≈: the same amount, converted by molar mass.

For `CCCN(CCC)CCCCOc1cc2oc3cc(OCCCCN(CCC)CCC)c(OC)c(CC=C(C)C)c3c(=O)c2c(O)c1CC=C(C)C`, the Activity in experiment [1] was determined as 2.8.

As to `CCN(CC)CCCCOc1cc2oc3cc(OCCCCN(CC)CC)c(OC)c(CC=C(C)C)c3c(=O)c2c(O)c1CC=C(C)C`, the MIC in experiment [2] stood at 8 µg/mL (≈ 12 µM); in experiment [3], 4 µg/mL (≈ 6.02 µM).

Take `COc1c(OCCCCN2CCOCC2)cc2oc3cc(OCCCCN4CCOCC4)c(CC=C(C)C)c(O)c3c(=O)c2c1CC=C(C)C`: the minimal inhibitory concentration (MIC) in experiment [2] was 8 µg/mL (≈ 11.5 µM); in experiment [3], 4 µg/mL (≈ 5.77 µM).
